Test results taken from patent publication US6723897B2, “Methods for controlling gibberellin levels” (Monsanto Technology, LLC, priority 1998, dated 2004).
“Also recorded” adds a separate entry of the source.

How the values were obtained:
[1] = tested on: constitutively GA-deficient transgenic dwarf soybean line 719; assay: Experiment I greenhouse test, seed imbibition, GA-deficient soybean; type: in vivo, Glycine max; set-up: Observation on Transgenic Line 719: key: −1: treated plants are shorter as compared to untreated plants; 0: treated plants had the same stature as untreated plants; 1: treated plants are slightly elongated as compared to untreated plants; 2: treated plants are moderately elongated as compared to untreated plants; 3: treated plants are highly elongated as compared to untreated plants; 4: treated plants are extremely elongated as compared to untreated plants; settings: 0.25 mg/ml; for effect in both the constitutive transgenic dwarf and wild-type soybean lines: imbibition, lines 719 and A3237
From the text: Seeds are covered with 0.5″ of vermiculite.

[2] = tested on: constitutively GA-deficient transgenic dwarf soybean line 719; assay: Fifth and sixth field tests, emergence after seed imbibition; type: in vivo, Glycine max; settings: for Total Emerged: 50 seeds imbibed 5 hours
Method: Fresh stock solutions of compounds are prepared for this test. Kaurenoic acid is tested at 0.025 and 0.25 mg/ml; GA3 is tested at 0.025, 0.25, and 0.5 mg/ml; GA3-3-acetate at 0.025 and 0.25 mg/ml; GA5 at 0.025 and 0.25 mg/ml; GA9 at 0.025 and 0.04 mg/ml; and GA12 at 0.025 and 0.25 mg/ml. Stock solutions are prepared in ethanol in 50 ml plastic centrifuge tubes; deionized water is then added to make up the volumes to 30 ml. The final solutions contained 300 μl ethanol in 30 mls. […] Seeds are imbibed for 6 hours, and planted 1″ deep in a single row in moist to wet soil. They are then covered with dry soil, and the row is compacted twice with an all-terrain vehicle. Untreated dry seeds served as controls. The GA solutions are placed on dry ice until reuse the next day.
The next day, additional seeds of constitutive transgenic dwarf line 719 (50 seeds/treatment) are imbibed in the remaining treatment solutions for 5 hours, and planted in moist soil. The rows are compacted twice.

[3] = tested on: constitutively GA-deficient transgenic dwarf soybean line 719; assay: Experiment IV field test, seed imbibition, compacted soil; type: in vivo, Glycine max; settings: for field result on line 719 in words: over the rates tested (0.0025-0.25 mg/ml); for No. of Dwarfs Not Rescued / Total Plants: imbibed 8 hours; for Total Plants: 25 seeds planted; for % of Dwarfs Rescued: relative to 8.5 true dwarfs per plot
From the text: The objective of these experiments is to determine if there is a greenhouse to field translation of results with selected GA compounds with respect to rescue of constitutively GA-deficient transgenic dwarf soybeans and elongation of wild-type plants. […] For the first field trial, the solutions previously used for the second greenhouse test, and stored in the freezer, are employed. […] For comparison, freshly prepared solutions of GA3 are also employed. The compounds tested included kaurenoic acid, fresh GA3, stored GA3, GA3-3-acetate, GA5, GA9, and GA12. […] Seeds of line […] are imbibed for 8 hours. Untreated dry seeds served as controls. After imbibition, the remaining solutions are returned to the freezer. Seeds are kept on the benchtop at room temperature overnight. […] Untreated dry seeds served as controls. Following planting line 719, all plots (both […] and line 719) are compacted by driving an all-terrain vehicle over the planted rows twice, and watered. All GA solutions are discarded. The results are shown in Table 15 for constitutively GA-deficient transgenic dwarf line 719 only as insufficient […] germinated to make any useful observations. Observations included number of plants that germinated, number rescued, and visual observations. Two points should be noted concerning the data in Table 15. […] Next, the number of dwarfs not rescued in any treatment is subtracted from 8.5.

[4] = tested on: GA-deficient transgenic soybean line 719 (R5); assay: Hilum treatment of soybean seeds, seedling growth and development, GA-deficient soybean; type: in vivo, Glycine max; set-up: key to Emergence timing / Hypocotyl length (6 DAP) / 1st internode length (12 DAP) / 3rd internode length (20 DAP) / 2nd internode length (12 DAP): pos: emergence faster/stem segment longer than controls; 0: emergence timing/stem segment length similar to controls; neg: emergence slower/stem segment shorter than controls; settings: for 1st internode length (12 DAP) / Emergence timing / Hypocotyl length (6 DAP): single rate per compound 8.3-16.5 μg/seed
Method: In the previous experiments, the effect of various GA compounds on transgenic, GA-deficient and wild-type soybean is evaluated by treating seeds with these compounds via imbibition. Several of these compounds are not completely soluble in water, which limited the interpretation of their utility in rescuing GA-deficient dwarf plants. The purpose of this experiment is to reevaluate selected, previously tested compounds, and additional compounds, by introducing them to the seed via the hilum. As shown by the results presented below, direct application of small quantities of GA compounds dissolved in an organic solvent to the hilum is an effective method of treating soybean seeds. As in the previously described experiments, comparison is made between activity on GA-deficient soybean seedlings and normal (wild-type) seedlings. […] soybean seeds are supplied by Asgrow Seed Company (Des Moines, Iowa). Seed of GA-deficient transgenic soybean line 719 is created by transformation of […] soybean with pMON29801 (FMV/antisense CPScc). Fifth generation seed (R5) is used for these experiments. […] When multiple droplets are applied, each 1 μl droplet is allowed to dry before subsequent droplets are added. Ethanol minus compound is used a treatment control. […] (29° C.) and 75° F. (24° C.), respectively. Emergence timing is measured by counting the number of emerged seedlings at different times after planting. Emergence is defined as the presence of cotyledons raised to soil level or above. […] To assess the ability of a seed treatment to deliver biological activity beyond the first internode, measurements are taken on selected treatments after prolonged growth and development.

[5] = tested on: wild-type soybean line A3237; assay: Experiment I greenhouse test, seed imbibition, wild-type soybean; settings: 0.25 mg/ml; seeds imbibed 5 hours
Method: Compounds are first prepared as 25 mg/ml solutions in ethanol as described above, and then diluted into 40 ml of water to prepare the final 0.25 mg/ml treatment solutions. Visual observations on solubilities (milky, clear, etc.) of the treatment solutions are noted. The treatment solutions are divided into two 20 ml portions, each in 50 ml plastic centrifuge tubes. In addition to treating seeds with solutions containing the test compounds, untreated seeds and seeds imbibed in ethanol-water solution (300 μl ethanol in 30 mls of water) are also included in this experiment as controls. […]
After imbibition, seeds are removed from the test tubes, placed on wax paper to dry, and planted in bread pans containing farm soil amended with fertilizer at 20 seeds/pan. Seeds are covered with 0.5″ of vermiculite. Pans are transferred to the greenhouse, which had day/night temperatures of 86/68° F. (30/20° C.), and subirrigated. Illumination is at a light intensity of 300-400 μmolm^−2s^−1 photosynthetic photon flux; 16 hours light/8 hours dark. Subsequent waterings are also through sub-irrigation until the test is terminated three weeks later. Observations included the number of dwarf, intermediate, and tall plants; plant height; uniformity of rescue; and any visual effects.

[6] = L719, hilum treatment, rate response
[7] = L719, hilum treatment, single rate per compound 9.7-16.5 μg/seed

C=C1C[C@@]23CC[C@H]4[C@@](C)(CCC[C@@]4(C)C(=O)O)[C@@H]2CC[C@@H]1C3 [kaurenoic acid]
effect in both the constitutive transgenic dwarf and wild-type soybean lines [1]: rescue (elongated hypocotyls) with very little elongation | Observation on Transgenic Line 719 ([1]; seeds imbibed 5 hours): 1 | Observation on Transgenic Line 719, remark in words ([1]; seeds imbibed 5 hours): some rescue | Visual Observations on Transgenic Line 719 ([2]; 0.025 mg/ml): Poor rescue | Total Emerged ([2]; 0.025 mg/ml): 20 | Visual Observations on Transgenic Line 719 ([2]; 0.25 mg/ml): Poor stand | Total Emerged ([2]; 0.25 mg/ml): 10 | field result on line 719 in words [3]: poor uniformity in plant height | No. of Dwarfs Not Rescued ([3]; stored solution 0.0025 mg/ml): 5 | Total Plants ([3]; stored solution 0.0025 mg/ml): 23 | % of Dwarfs Rescued ([3]; stored solution 0.0025 mg/ml): 41.2% | No. of Dwarfs Not Rescued ([3]; stored solution 0.025 mg/ml): 4 | Total Plants ([3]; stored solution 0.025 mg/ml): 17 | % of Dwarfs Rescued ([3]; stored solution 0.025 mg/ml): 52.9% | No. of Dwarfs Not Rescued ([3]; stored solution 0.25 mg/ml): 6 | Total Plants ([3]; stored solution 0.25 mg/ml): 22 | % of Dwarfs Rescued ([3]; stored solution 0.25 mg/ml): 29.4% | 1st internode length (12 DAP) ([4]; L719, hilum treatment): 0 | Emergence timing ([4]; L719, hilum treatment): pos | Hypocotyl length (6 DAP) ([4]; L719, hilum treatment): 0 | Observation on Wild-Type Line A3237 [5]: 0

C=C1C[C@]23C[C@H]1CC[C@H]2[C@]1(C)CCC[C@@](C)(C(=O)O)[C@H]1[C@@H]3C(=O)O [GA12]
effect in both the constitutive transgenic dwarf and wild-type soybean lines [1]: rescue (elongated hypocotyls) with very little elongation | Observation on Transgenic Line 719 ([1]; seeds imbibed 5 hours): 1 | Total Emerged ([2]; 0.025 mg/ml): 28 | Total Emerged ([2]; 0.25 mg/ml): 9 | field result on line 719 in words [3]: good emergence | No. of Dwarfs Not Rescued ([3]; stored solution 0.0025 mg/ml): 5 | Total Plants ([3]; stored solution 0.0025 mg/ml): 20 | % of Dwarfs Rescued ([3]; stored solution 0.0025 mg/ml): 41.2% | No. of Dwarfs Not Rescued ([3]; stored solution 0.025 mg/ml): 4 | Total Plants ([3]; stored solution 0.025 mg/ml): 22 | % of Dwarfs Rescued ([3]; stored solution 0.025 mg/ml): 52.9% | No. of Dwarfs Not Rescued ([3]; stored solution 0.25 mg/ml): 0 | Total Plants ([3]; stored solution 0.25 mg/ml): 20 | % of Dwarfs Rescued ([3]; stored solution 0.25 mg/ml): 100% | 1st internode length (12 DAP) ([4]; L719, hilum treatment): 0 | Emergence timing ([4]; L719, hilum treatment): 0 | Hypocotyl length (6 DAP) ([4]; L719, hilum treatment): neg | effect on emergence timing and hypocotyl length ([4]; single rate, hilum): inhibited emergence timing and hypocotyl length | Observation on Wild-Type Line A3237 [5]: −1

C=C1C[C@]23C[C@H]1CC[C@H]2[C@@]12CCC[C@@](C)(C(=O)O1)[C@H]2[C@@H]3C(=O)O [GA9]
effect in both the constitutive transgenic dwarf and wild-type soybean lines [1]: excessive elongation | Observation on Transgenic Line 719 ([1]; seeds imbibed 5 hours): 3 | Visual Observations on Transgenic Line 719 ([2]; 0.025 mg/ml): good emergence with good rescue; also recorded: No dwarfs in plots | Total Emerged ([2]; 0.025 mg/ml): 24 | Total Emerged ([2]; 0.04 mg/ml): 11 | field result on line 719 in words [3]: slight elongation, and no uniformity in height | No. of Dwarfs Not Rescued ([3]; stored solution 0.0025 mg/ml): 7 | Total Plants ([3]; stored solution 0.0025 mg/ml): 20 | % of Dwarfs Rescued ([3]; stored solution 0.0025 mg/ml): 17.6% | No. of Dwarfs Not Rescued ([3]; stored solution 0.025 mg/ml): 0 | Total Plants ([3]; stored solution 0.025 mg/ml): 22 | % of Dwarfs Rescued ([3]; stored solution 0.025 mg/ml): 100% | Visual Observations on Transgenic Line 719 ([3]; stored solution 0.25 mg/ml): Slightly elongated plants | No. of Dwarfs Not Rescued ([3]; stored solution 0.25 mg/ml): 0 | Total Plants ([3]; stored solution 0.25 mg/ml): 17 | % of Dwarfs Rescued ([3]; stored solution 0.25 mg/ml): 100% | Lowest rate where biological activity is observed, 1st internode length (10 DAP) [4, 6]: 10 μg/seed | Lowest rate where biological activity is observed, emergence timing [4, 6]: 0.1 μg/seed | Lowest rate where biological activity is observed, hypocotyl length (5 DAP) [4, 6]: 0.1 μg/seed | 1st internode length (12 DAP) ([4]; L719, hilum treatment): pos | Emergence timing ([4]; L719, hilum treatment): pos | Hypocotyl length (6 DAP) ([4]; L719, hilum treatment): pos | 2nd internode length (12 DAP) [4, 7]: 0 | 3rd internode length (20 DAP) [4, 7]: 0 | Observation on Wild-Type Line A3237 [5]: 3
